# According to patent US20030077573A1, “Methods of identifying compounds useful in the inhibition of neurodegenerative disease” (priority 1999, published 2003):
# Bridge positions count the residues as written; N and C are the ends. Ends that are not written are not given here.
# Tests used:
# [1] = test system: murine microglial cell line (N9); assay: LTB4 release from N9 microglial cells; type: cell-based; details: 18 hours; for effect on Aβ-induced microglial LTB4 release: Aβ1-40 500 nM + drug (dipyridamole 10 μM)
# Protocol: The murine microglial cell line (N9) is kindly provided by Dr. Paola Ricciardi-Castagnoli (Cellular Pharmacology Center, Milan, Italy) and cells are grown in RPMI 1640 medium supplemented with 5% fetal calf serum, 2 mM glutamine, 100 U/mL penicillin, 0.1 μg/mL streptomycin and 0.05 mM 2-mercaptoethanol. Microglial cells are seeded at 50,000 cells/well in 6-well plates (Falcon, France) and treated with Aβ1-40 (500 nM), dipyridamole (10 μM) or untreated (control) and incubated for 18 hours. Cell supernatants are then collected and immediately frozen at −80° C.
# Cell supernatants (50 μL) are used in the LTB4 assay, and each sample is assayed in duplicate. Manipulations are performed in accordance with the manufacturer's instruction. A spectramax 250 spectrophotometer (Molecular Devices, San Diego, USA) is used to measure absorbance at 405 nm and a standard curve is plotted using a 4-parameter model. Cell extracts for protein determination are obtained by lysing microglial cells in 110 μL of ice cold lysis buffer ([…] pH 7.5, 150 mM NaCl, 1 mM EDTA, 1 mM EGTA, 1% Triton X-100, 2.5 mM sodium pyrophosphate, 1 mM β-Glycerophosphate, 1 mM Na3VO4, 1 μg/ml leupeptin and 1 mM phenylmethylsulfonyl fluoride). Protein concentrations are determined for each sample using the Biorad reagent according to the manufacturer's instruction. LTB4 data are thus expressed as pg LTB4 /mg cellular protein.
# [2] = test system: N9 murine microglial cell line; assay: LPS-induced TNF-α release from N9 microglia; type: cell-based
# [3] = test system: rat aortic rings; assay: vasoconstriction assay, ET-1-induced constriction of rat aortic rings; details: ET-1 1-5 nM, ODQ 10 μM, YC-1 5 μM, L-NAME 100 μM, dipyridamole 10 μM; for effect on Aβ-enhancement of ET-1-induced vasoconstriction (agent + Aβ): 1 μM Aβ1-40, ANOVA interaction; for effect on ET-1-induced vasoconstriction (agent alone): Aβ1-40 1 μM
# Protocol: (§1) Vasoactivity is measured in rat aortic rings using the system previously described, for example by Crawford, F., et al., The vasoactivity of Aβ peptides, Ann. N. Y. Acad. Sci. 826:3546, (1997); Crawford, F., et al., Characteristics of the in vitro vasoactivity of beta-amyloid peptides, Exp. Neurol. 150:159-168 (1998); Paris, D., et al., Isoform-specific vasoconstriction induced by Apolipoprotein E and modulation of this effect by Alzheimer's β-amyloid peptide. Neurosci. Lett. 256:73-76, (1998); Paris, D., et al., Role of peroxynitrite in the vasoactive and cytotoxic properties of Alzheimer's β-amyloid1-40 peptide, Exp. Neurol. 152:116-122 (1998); and Thomas, T. N., et al., Vasoactive effects and free radical generation by β-amyloid peptides. U.S. Pat. No. 6,011,019. Jan. 4, 2000. Normal male Sprague-Dawley rats (7-8 months old) are sacrificed, and freshly dissected rat aortae are segmented into 3 mm rings and suspended in Kreb's buffer on hooks. These hooks are connected to an isometric transducer linked to a MacLab system. Aortic rings are equilibrated in the tissue bath system for two hours with the Kreb's buffer changed every 30 min.
# For the vasoconstriction assay, the first group of aortic rings are pre-treated with 10 μM ODQ 2 minutes prior to the addition of 1 μM of Aβ1-40. After 5 minutes of incubation with Aβ, the vessels are then subjected to a dose range of ET-1 (from 1 nM to 5 nM). The second set of vessels are treated with Aβ prior to the addition of ET-1. A third set received ODQ treatment followed by ET-1, and the fourth group (control) only received ET-1 treatment. A similar protocol is applied with dipyridamole (10 μM), and YC-1 (5 μM). In all cases the percentage contraction as compared to baseline is determined for each dose of ET-1 used. The means and standard errors (SEs) of all such values are calculated.
# [4] = test system: rat aortic rings; assay: vasorelaxation assay, phenylephrine-constricted rat aortic rings; details: for effect on the relaxation induced by SNP: vessels constricted with 3.5 nM PE, SNP 0.1, 1, 2 μM, Aβ1-40 1 μM or ODQ 10 μM
# Protocol: as §1
# For the vasorelaxation assay, constricted aortic rings are pre-treated for 5 minutes with 1 μM of Aβ with a single dose of phenylephrine (3.5×10^−9 M) along with untreated controls. After waiting for stabilization of vasotension, aortic segments are subjected to a range of SNP doses. Aortic rings pre-constricted with a single dose of phenylephrine (3.5×10^−9 M) are treated with 10 μM ODQ 5 minutes prior to the addition of several doses of SNP. The effect of 10 μM of dipyridamole is also investigated on vessels pre-constricted with 3.5×10^−9 M of phenylephrine. Data are standardized such that the maximum PE-induced constriction is fixed at 100%.
# [5] = test system: rat aortic rings; assay: quantification of cGMP and cAMP levels in rat aortae (EIA)
# Protocol: Aortic rings are equilibrated in Kreb's buffer for 2 hours and then constricted with a serial dose range of ET-1 (from 1 nM to 5 nM) in the presence or absence of 1 μM of Aβ. Immediately following maximum vasoconstriction (or, in the case of control rings, after 2 hours of equilibration in Kreb's buffer), aortae are frozen in liquid nitrogen. Vessels are then homogenized in 10% trichloracetic acid (TCA) diluted in PBS (at 4° C.) and centrifuged to pellet TCA precipitated proteins. Supernatants are collected and TCA is then removed from samples by three extractions with diethyl ether saturated in deionized water. Residual ether is removed from the sample by heating samples to 70° C. for 10 minutes. Both cGMP and cAMP levels are quantified using competitive binding EIAs (Alexis Biochemicals, San Diego, Calif.) according to the manufacturer's instruction.
# [6] = ET-1 1-5 nM vs untreated control
compound,measurement,setting,value
"Nc1nc2c(nc(Br)n2[C@@H]2O[C@@H]3COP(=O)(O)O[C@H]3[C@H]2O)c(=O)[nH]1 [8-Br cGMP, 8-bromo cGMP]",effect on Aβ-induced microglial LTB4 release,[1],completely block Aβ-induced microglial LTB4 release
same,effect on LPS-induced microglial TNF-α release,"[2]; 8-Br cGMP 1 μM, data not shown",partially inhibit LPS-induced microglial TNF-α release
same,effect on LPS-induced microglial TNF-α release,"[2]; 8-Br cGMP 5 μM, LPS 2.5 ng/mL, 18 h",completely inhibit LPS-induced microglial TNF-α release
"COC(=O)[C@@H](N)CCCNC(=N)N[N+](=O)[O-] [L-NAME, N-ω-nitro-L-arginine methyl ester]",effect on Aβ-enhancement of ET-1-induced vasoconstriction (agent + Aβ),[3],no statistical interaction is observed
same,effect on ET-1-induced vasoconstriction (agent alone),[3],does not significantly increase ET-1-induced vasoconstriction
"O=c1onc2cnc3ccccc3n12 [ODQ, 1H-[1,2,4]oxadiazolo[4,3,-α]quinoxalin-1-one]",effect on Aβ-enhancement of ET-1-induced vasoconstriction (agent + Aβ),[3],constriction which is only additive
same,effect on ET-1-induced vasoconstriction (agent alone),[3],Neither ODQ or Aβ alone are able to potentiate vasoconstriction induced by ET-1
same,effect on the relaxation induced by SNP,[4],blocks the relaxation induced by this NO donor
OCCN(CCO)c1nc(N2CCCCC2)c2nc(N(CCO)CCO)nc(N3CCCCC3)c2n1 [dipyridamole],effect on Aβ-induced microglial LTB4 release,[1],completely prevents the increased LTB4 production induced by Aβ
same,effect on Aβ-enhancement of ET-1-induced vasoconstriction (agent + Aβ),[3],blocks Aβ-induced vasoconstriction in a statistically interactive manner
same,effect on ET-1-induced vasoconstriction (agent alone),[3],opposes ET-1-induced vasoconstriction in an ET-1 dose-dependent manner
same,relaxation of aortic rings constricted with phenylephrine,"[4]; 10 μM dipyridamole, 3.5 nM PE",induced potent relaxation
same,effect on Aβ opposition to relaxation,"[4]; 10 μM dipyridamole, Aβ-treated vs control vessels, PE-constricted",blocks the opposition to relaxation normally induced by Aβ
same,relaxant effect on quiescent rings,"[4]; 10 μM dipyridamole, data not shown",no significant relaxant effect
same,effect on LPS-induced microglial activation (TNF-α release),"[2]; LPS 2.5 ng/mL, 18 h, dipyridamole 10 μM, SNP 10 μM, YC-1 10 μM",markedly reduce microglial activation induced by LPS
"Aβ1-40: freshly solubilized β-amyloid peptide Aβ1-40, supplied by QCB",cAMP levels in rat aortic rings,[5]; 1 μM Aβ + ET-1 vs ET-1 alone,not able to modulate cAMP levels
same,cGMP levels in rat aortic rings,[5]; 1 μM Aβ + ET-1 vs ET-1 alone,significantly lower compared to ET-1 treatment alone
same,microglial LTB4 release,"[1]; Aβ1-40 500 nM, vs untreated cells",significant LTB4 release
same,effect on the relaxation induced by SNP,[4],"relaxation induced by SNP, an NO-donor, is reduced"
"ET-1: Endothelin-1, one of the most potent cerebrovascular vasoconstrictors (CSCSSLMDKECVYFCHLDIIW; disulfide 1-15, 3-11; ends not checked; UniProt P05305 53-73, looked up)",cAMP levels in rat aortic rings,[5]; [6],increase
same,cGMP levels in rat aortic rings,[5]; [6],increase
